Reference: US12077503B2, “Substituted cyclic amides and their use as herbicides” (FMC CORPORATION, priority 2015, dated 2024)

Experiments:
Format in all cases: in vivo
[1] = tested on: barnyardgrass (Echinochloa crus-galli); assay: Test G Pre-Emergence Protocol; conditions: evaluated after 13 days
Protocol: (§1) Seeds of corn (Zea mays), giant foxtail (Setaria faberi), barnyardgrass (Echinochloa crus-galli), ivy-leaved morning glory (Ipomoea hederacea), redroot pigweed (Amaranthus retroflexus) and velvetleaf (Abutilon theophrasti) were sown in standard soil in pots. After cultivation for one day under controlled conditions in a glasshouse (at 24/16° C., day/night; 14 hours light; 65% humidity), the plants were sprayed with an aqueous spray solution derived from the formulation of the technical active ingredient in acetone/water (50:50) solution containing 0.5% Tween 20 (polyoxyethylene sorbitan monolaurate, CAS RN 9005-64-5) to give a final dose of 15.625, 62.5 or 250 g/ha of test compound.
(§2) The test plants were then grown on under controlled conditions in a glasshouse (at 24/16° C., day/night; 14 hours light; 65% humidity) and watered twice daily. After 13 days the test was evaluated (100=total damage to plant; 0=no damage to plant). A dash (-) means no test result.

corn (Zea mays) [2] = assay: Test G Pre-Emergence Protocol; conditions: evaluated after 13 days
Protocol: as §1, §2

[3] = tested on: giant foxtail (Setaria faberi); assay: Test G Pre-Emergence Protocol; conditions: evaluated after 13 days
Protocol: as §1, §2

[4] = tested on: ivy-leaved morning glory (Ipomoea hederacea); assay: Test G Pre-Emergence Protocol; conditions: evaluated after 13 days
Protocol: as §1, §2

[5] = tested on: redroot pigweed (Amaranthus retroflexus); assay: Test G Pre-Emergence Protocol; conditions: evaluated after 13 days
Protocol: as §1, §2

[6] = tested on: velvetleaf (Abutilon theophrasti); assay: Test G Pre-Emergence Protocol; conditions: evaluated after 13 days
Protocol: as §1, §2

[7] = tested on: barnyardgrass (Echinochloa crus-galli); assay: Test G Post-Emergence Protocol
Protocol: as §1, with “8 days” for “one day”
as §2

corn (Zea mays) [8] = assay: Test G Post-Emergence Protocol
Protocol: as §1, with “8 days” for “one day”
as §2

[9] = tested on: giant foxtail (Setaria faberi); assay: Test G Post-Emergence Protocol
Protocol: as §1, with “8 days” for “one day”
as §2

[10] = tested on: ivy-leaved morning glory (Ipomoea hederacea); assay: Test G Post-Emergence Protocol
Protocol: as §1, with “8 days” for “one day”
as §2

[11] = tested on: redroot pigweed (Amaranthus retroflexus); assay: Test G Post-Emergence Protocol
Protocol: as §1, with “8 days” for “one day”
as §2

[12] = tested on: velvetleaf (Abutilon theophrasti); assay: Test G Post-Emergence Protocol
Protocol: as §1, with “8 days” for “one day”
as §2

[13] = 62.5 g ai/ha, 100=total damage to plant, 0=no damage to plant
[14] = 15.625 g ai/ha, evaluated after 13 days (100=total damage to plant; 0=no damage to plant)
[15] = 62.5 g ai/ha, evaluated after 13 days
[16] = 250 g ai/ha, evaluated after 13 days

Structure (SMILES): Cc1nc(Cl)ccc1[C@@H]1CN(C)C(=O)[C@H]1C(=O)Nc1cccc(F)c1F [Compound 1463]
- Barnyardgrass damage rating (100=total damage to plant; 0=no damage to plant) ([1]; 15.625 g ai/ha): 10
- plant damage rating, Barnyardgrass [1, 13]: 50
- Barnyardgrass damage rating (100=total damage to plant; 0=no damage to plant) ([1]; 250 g ai/ha): 90
- Corn damage rating (100=total damage to plant; 0=no damage to plant) (corn (Zea mays) [2]; 15.625 g ai/ha): 0
- plant damage rating, Corn (corn (Zea mays) [2]; [13]): 0
- Corn damage rating (100=total damage to plant; 0=no damage to plant) (corn (Zea mays) [2]; 250 g ai/ha): 0
- Foxtail, Giant damage rating (100=total damage to plant; 0=no damage to plant) ([3]; 15.625 g ai/ha): 0
- plant damage rating, Foxtail, Giant [3, 13]: 70
- Foxtail, Giant damage rating (100=total damage to plant; 0=no damage to plant) ([3]; 250 g ai/ha): 90
- Morning-glory, Ivy-leaved damage rating (100=total damage to plant; 0=no damage to plant) ([4]; 15.625 g ai/ha): 0
- plant damage rating, Morningglory, Ivy-leaved [4, 13]: 0
- Morningglory, Ivy-leaved damage rating (100=total damage to plant; 0=no damage to plant) ([4]; 250 g ai/ha): 0
- Pigweed, Redroot damage rating (100=total damage to plant; 0=no damage to plant) ([5]; 15.625 g ai/ha): 0
- plant damage rating, Pigweed, Redroot [5, 13]: 0
- Pigweed, Redroot damage rating (100=total damage to plant; 0=no damage to plant) ([5]; 250 g ai/ha): 0
- Velvetleaf damage rating (100=total damage to plant; 0=no damage to plant) ([6]; 15.625 g ai/ha): 0
- plant damage rating, Velvetleaf [6, 13]: 0
- Velvetleaf damage rating (100=total damage to plant; 0=no damage to plant) ([6]; 250 g ai/ha): 0
- Barnyardgrass damage rating [7, 14]: 0
- Barnyardgrass damage rating (100=total damage to plant; 0=no damage to plant) [7, 15]: 0
- damage to plant, Barnyardgrass (100=total damage to plant; 0=no damage to plant) [7, 16]: 30
- Corn damage rating (corn (Zea mays) [8]; [14]): 0
- Corn damage rating (100=total damage to plant; 0=no damage to plant) (corn (Zea mays) [8]; [15]): 10
- damage to plant, Corn (100=total damage to plant; 0=no damage to plant) (corn (Zea mays) [8]; [16]): 10
- Foxtail, Giant damage rating [9, 14]: 0
- Foxtail, Giant damage rating (100=total damage to plant; 0=no damage to plant) [9, 15]: 0
- damage to plant, Foxtail, Giant (100=total damage to plant; 0=no damage to plant) [9, 16]: 70
- Morningglory, Ivy-leaved damage rating [10, 14]: 0
- Morningglory, Ivy-leaved damage rating (100=total damage to plant; 0=no damage to plant) [10, 15]: 0
- damage to plant, Morningglory, Ivy-leaved (100=total damage to plant; 0=no damage to plant) [10, 16]: 20
- Pigweed, Redroot damage rating [11, 14]: 0
- Pigweed, Redroot damage rating (100=total damage to plant; 0=no damage to plant) [11, 15]: 10
- damage to plant, Pigweed, Redroot (100=total damage to plant; 0=no damage to plant) [11, 16]: 10
- Velvetleaf damage rating [12, 14]: 0
- Velvetleaf damage rating (100=total damage to plant; 0=no damage to plant) [12, 15]: 10
- damage to plant, Velvetleaf (100=total damage to plant; 0=no damage to plant) [12, 16]: 20
